The source made the active and inactive calls. The rule behind the calls is not given here.
Assays:
[1] = Stabilization of human […] mRNA splicing expressed in human SMA-derived fibroblasts at 121 to 605 nM by RT-qPCR analysis; format: ADME; details: 0.605 µM
[2] = Chronic toxicity in retina of po dosed cynomolgus monkey assessed as formation of microcystic spaces in the inner retinal layers after 39 weeks by OCT analysis; format: organism-based, Macaca fascicularis; details: in vivo, 6552 h
[3] = Oral bioavailability in rat at 5.5 mg/kg administered as single dose; format: ADME, organism-based; details: in vivo
[4] = AUC (0 to 24 hrs) in SMA adult C/C allele mouse model at 1 mg/kg, po dosed once daily for 10 days; format: ADME, organism-based; design: dose 1 mg/kg, time < 24 hr, route oral; details: in vivo
[5] = Fraction unbound in human plasma; format: ADME, cell-free
[6] = system: Mus musculus; experiment: In-vivo stabilization SMN2 mRNA in SMA delta7 ip dosed mouse assessed as increase in percentage of fully innervated NMJs dosed daily starting from postnatal day 3 to postnatal day 14 by immunohistochemistry; format: functional, organism-based
[7] = system: Mus musculus; experiment: In-vivo stabilization SMN2 mRNA in SMA delta7 ip dosed mouse assessed as increased muscle size in the EDL dosed daily starting from postnatal day 3 to postnatal day 14 by immunohistochemistry; format: functional, organism-based
[8] = system: Mus musculus; experiment: In-vivo stabilization of SMN2 mRNA in SMA neonatal delta7 mouse model assessed as increase in SMN protein levels in quadriceps at 0.3 mg/kg, ip dosed once daily starting from postnatal day 3 to postnatal day 9 relative to control; format: functional
[9] = organism: Homo sapiens; experiment: Modulation of human SMN2 mRNAsplicing expressed in HEK293H cells by qRT-PCR analysis; format: cell-based
[10] = Volume of distribution at steady state in rat at 1.9 mg/kg, iv administered as single dose; format: ADME, organism-based; details: in vivo, read-out: Vdss
[11] = system: Mus musculus; experiment: In-vivo stabilization of SMN2 mRNA in SMA adult C/C allele mouse model assessed as increase in SMN protein levels in quadriceps at 10 mg/kg, po dosed once daily for 10 days relative to control; format: functional
[12] = Volume of distribution at steady state in cynomolgus monkey at 0.1 mg/kg, iv administered as single dose; format: ADME, organism-based, Macaca fascicularis; details: in vivo, read-out: Vdss
[13] = system: Mus musculus; experiment: In-vivo stabilization SMN2 mRNA in SMA delta7 ip dosed mouse assessed as increase in muscle size dosed daily starting from postnatal day 3 to postnatal day 14 by immunohistochemistry; format: functional, organism-based
[14] = Stabilization of human STRN3 mRNA splicing expressed in human SMA-derived fibroblasts at 121 to 605 nM by RT-qPCR analysis; format: ADME; details: 0.605 µM
[15] = Cardiotoxicity in cynomolgus monkey assessed as prolongation of QTc interval time; format: toxicity, Macaca fascicularis
[16] = system: Mus musculus; experiment: In-vivo stabilization of SMN2 mRNA in SMA adult C/C allele mouse model assessed as increase in SMN protein levels in quadriceps at 1 mg/kg, po dosed once daily for 10 days relative to control; format: functional
[17] = Toxicity in po dosed cynomolgus monkey assessed phospholipidosis administered via gavage up to 39 weeks; format: organism-based, Macaca fascicularis; details: in vivo, 6552 h
[18] = system: Mus musculus; experiment: In-vivo stabilization of SMN2 mRNA in SMA neonatal delta7 mouse model assessed as increase in SMN protein levels in quadriceps at 1 mg/kg, ip dosed once daily starting from postnatal day 3 to postnatal day 9 relative to control; format: functional
[19] = Toxicity in po dosed rat assessed phospholipidosis administered via gavage up to 26 weeks; format: organism-based; details: in vivo, 4368 h
[20] = Chronic toxicity in retina of po dosed cynomolgus monkey assessed as formation of scotopic depressed B-waves after 39 weeks by ERG analysis; format: organism-based, Macaca fascicularis; details: in vivo, 6552 h
[21] = system: Mus musculus; experiment: In-vivo stabilization of SMN2 mRNA in SMA adult C/C allele mouse model assessed as increase in SMN protein levels in quadriceps at 3 mg/kg, po dosed once daily for 10 days relative to control; format: functional
[22] = Chronic toxicity in retina of po dosed cynomolgus monkey assessed as effect on photo-receptor layers after 39 weeks by histological analysis; format: organism-based, Macaca fascicularis; details: in vivo, 6552 h
[23] = system: Mus musculus; experiment: In-vivo stabilization of SMN2 mRNA in SMA neonatal delta7 mouse model assessed as increase in SMN protein levels in brain at 1 mg/kg, ip dosed once daily starting from postnatal day 3 to postnatal day 9 relative to control; format: functional
[24] = system: Mus musculus; experiment: In-vivo stabilization of SMN2 mRNA in SMA neonatal delta7 mouse model assessed as increase in SMN protein levels in quadriceps at 0.1 mg/kg, ip dosed once daily starting from postnatal day 3 to postnatal day 9 relative to control; format: functional
[25] = Effect on FOXM1b/c mRNA splicing in cynomolgus monkey induced pluripotent stem cells by RT-qPCR analysis; format: ADME, Macaca fascicularis; details: Macaca fascicularis
[26] = system: Mus musculus; experiment: In-vivo stabilization of SMN2 mRNA in SMA adult C/C allele mouse model assessed as increase in SMN protein levels in brain at 3 mg/kg, po dosed once daily for 10 days relative to control; format: functional
[27] = Clearance in rat at 1.9 mg/kg, iv administered as single dose; format: ADME, organism-based; details: in vivo
[28] = molecular target: Survival motor neuron protein (Homo sapiens) (UniProt Q16637); experiment: Activation of SMN protein in human SMA-derived fibroblasts after 48 hrs by HTRF assay
[29] = system: Mus musculus; experiment: In-vivo stabilization SMN2 mRNA in SMA delta7 mouse assessed as increase in mean survival day at 0.1 to 3 mg/kg, ip dosed daily starting from postnatal day 3 to postnatal day 23 followed by po dosing 0.3 to 10 mg/kg per day via gavage; format: functional, organism-based
[30] = Chronic toxicity in retina of po dosed cynomolgus monkey assessed as RPE hypertrophy 39 weeks by histological analysis; format: organism-based, Macaca fascicularis; details: in vivo, 6552 h
[31] = physchem
[32] = AUC (0 to 24 hrs) in SMA neonatal delta7 mouse model at 0.1 mg/kg, ip dosed once daily starting from postnatal day 3 to postnatal day 9; format: ADME, organism-based; design: time < 24 hr, dose 0.1 mg/kg, route intraperitoneal; details: in vivo
[33] = Effect on FOXM1b/c mRNA splicing in human induced pluripotent stem cells by RT-qPCR analysis; format: ADME; details: Homo sapiens
[34] = system: NIH3T3; experiment: Phototoxicity in mouse 3T3 cells assessed as decrease in cell viability at 9 uM in presence of UV light by neutral red uptake assay; format: cell-based; details: nih3t3, 9 µM
[35] = system: Mus musculus; experiment: In-vivo stabilization of SMN2 mRNA in SMA neonatal delta7 mouse model assessed as increase in SMN protein levels in brain at 0.1 mg/kg, ip dosed once daily starting from postnatal day 3 to postnatal day 9 relative to control; format: functional
[36] = molecular target: hERG (KCNH2) (Homo sapiens, UniProt Q12809); experiment: Inhibition of human ERG at 37 degC; details: human
[37] = Stabilization of human MADD mRNA splicing expressed in human SMA-derived fibroblasts at 121 to 605 nM by RT-qPCR analysis; format: ADME; details: 0.605 µM
[38] = Chronic toxicity in retina of po dosed cynomolgus monkey assessed as effect on outer nuclear layers after 39 weeks by histological analysis; format: organism-based, Macaca fascicularis; details: in vivo, 6552 h
[39] = Effect on human FOXM1a mRNA splicing expressed in human SMA-derived fibroblasts by RT-qPCR analysis; format: ADME
[40] = Chronic toxicity in retina of po dosed cynomolgus monkey assessed as excess vacuolation of inner nuclear layer after 39 weeks by histological analysis; format: organism-based, Macaca fascicularis; details: in vivo, 6552 h
[41] = Oral bioavailability in cynomolgus monkey at 0.5 mg/kg administered as single dose; format: ADME, organism-based, Macaca fascicularis; details: in vivo

Chain of Survival motor neuron protein (Homo sapiens) (Q16637 whole entry): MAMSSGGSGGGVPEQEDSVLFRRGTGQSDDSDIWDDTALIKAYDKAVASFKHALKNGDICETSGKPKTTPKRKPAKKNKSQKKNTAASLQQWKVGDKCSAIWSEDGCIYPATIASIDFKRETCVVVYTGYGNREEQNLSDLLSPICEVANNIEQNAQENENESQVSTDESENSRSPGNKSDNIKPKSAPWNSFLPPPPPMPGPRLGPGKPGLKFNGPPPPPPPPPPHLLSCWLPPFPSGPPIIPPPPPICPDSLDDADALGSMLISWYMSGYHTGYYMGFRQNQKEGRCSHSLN
Chain of hERG (KCNH2) (Q12809 whole entry): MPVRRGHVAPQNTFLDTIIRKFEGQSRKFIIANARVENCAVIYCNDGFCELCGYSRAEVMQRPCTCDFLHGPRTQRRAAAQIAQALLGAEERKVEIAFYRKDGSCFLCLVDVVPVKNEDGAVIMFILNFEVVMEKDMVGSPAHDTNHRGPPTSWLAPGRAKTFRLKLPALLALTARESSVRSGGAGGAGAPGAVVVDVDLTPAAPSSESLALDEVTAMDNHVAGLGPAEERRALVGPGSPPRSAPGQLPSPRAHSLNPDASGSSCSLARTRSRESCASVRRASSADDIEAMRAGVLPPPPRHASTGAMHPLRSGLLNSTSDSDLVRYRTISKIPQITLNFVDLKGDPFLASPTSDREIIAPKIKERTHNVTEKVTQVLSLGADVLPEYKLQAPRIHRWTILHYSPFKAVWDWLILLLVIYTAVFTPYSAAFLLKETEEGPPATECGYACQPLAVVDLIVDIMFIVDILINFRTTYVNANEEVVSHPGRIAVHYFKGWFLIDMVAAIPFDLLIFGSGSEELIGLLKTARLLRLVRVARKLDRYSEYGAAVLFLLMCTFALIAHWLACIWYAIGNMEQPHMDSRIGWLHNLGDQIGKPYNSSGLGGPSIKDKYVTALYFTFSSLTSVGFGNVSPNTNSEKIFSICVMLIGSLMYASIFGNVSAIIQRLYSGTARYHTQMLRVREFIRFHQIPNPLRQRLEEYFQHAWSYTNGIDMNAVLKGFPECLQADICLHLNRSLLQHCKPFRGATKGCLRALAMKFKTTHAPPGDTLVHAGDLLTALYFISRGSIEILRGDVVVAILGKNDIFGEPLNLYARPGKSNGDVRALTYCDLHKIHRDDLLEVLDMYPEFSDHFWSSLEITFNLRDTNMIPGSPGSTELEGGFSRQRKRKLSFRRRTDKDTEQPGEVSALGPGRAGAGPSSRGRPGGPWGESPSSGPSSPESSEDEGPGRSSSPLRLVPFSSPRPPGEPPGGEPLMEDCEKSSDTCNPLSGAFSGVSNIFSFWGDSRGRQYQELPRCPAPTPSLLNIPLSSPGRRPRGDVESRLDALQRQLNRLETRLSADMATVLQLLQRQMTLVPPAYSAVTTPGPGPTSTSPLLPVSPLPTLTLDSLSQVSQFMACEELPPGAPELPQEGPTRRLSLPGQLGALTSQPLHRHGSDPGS

Cc1cn2nc(-c3cc(=O)n4cc(N5CCNC6(CC6)C5)ccc4n3)cc(C)c2n1
Activity [1]: Non-Toxic | Activity [2]: Toxic | bioavailability [3]: 100% | AUC at 24 h [4]: 9000 ng·h/mL | fraction unbound [5]: 0.11 | Activity [6]: Dose-dependent effect | Activity [7]: Dose-dependent effect | Activity [8]: 64% | EC1.5 [9]: 4 nM | Vd [10]: 3.1 L/kg | Activity [11]: 49% | Vd [12]: 2 L/kg | Activity [13]: Dose-dependent effect | Activity [14]: Non-Toxic | Activity [15]: Non-Toxic | Activity [16]: 0% | Activity [17]: Non-Toxic | Activity [18]: 210% | Activity [19]: Non-Toxic | Activity [20]: Toxic | Activity [21]: 0% | Activity [22]: Toxic | Activity [23]: 206% | Activity [24]: 32% | IC50 [25]: 155 nM | Activity [26]: 17% | clearance [27]: 8.9 mL/min/kg | EC1.5 [28]: 29 nM | Activity [29]: Active | Activity [30]: Toxic | pKa [31]: 6.8 | AUC at 24 h [32]: 2200 ng·h/mL | IC50 [33]: 113 nM | Activity [34]: Non-Toxic | Activity [35]: 28% | IC20 [36]: > 5000 nM | Activity [37]: Non-Toxic | Activity [38]: Toxic | EC50 [39]: 67 nM | Activity [40]: Toxic | bioavailability [41]: 43%

From ChEMBL document CHEMBL4382198, “Discovery of Risdiplam, a Selective Survival of Motor Neuron-2 ( SMN2) Gene Splicing Modifier for the Treatment of Spinal Muscular Atrophy (SMA)” (J Med Chem, 2018)
